Measured values published in PubChem BioAssay AID248 (DTP/NCI, 2004).
“And” between values parts separate entries of the source, which are not always exact repeats. Equal values may be shown once. Toxic doses and inconclusive results are not listed. No stated cut-off is given here; in the data, active means T/C of 150% or more; inactive means T/C below 125%.

Tested on: L1210 leukemia ip in BDF1 mice, survival T/C
Test: NCI In Vivo Anticancer Drug Screen. Data for tumor model L1210 Leukemia (intraperitoneal) in B6D2F1 (BDF1) mice
Details: endpoint: mean survival time, higher = longer survival
Method in brief: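 Tumor was transplanted into mice, which were then dosed with test compound or vehicle alone. Survival was recorded for each group, and the treated figure was expressed relative to the control figure.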

[1] = dose: 10.0 mg/kg/injection, schedule: Q01DX009 (ip), vehicle: saline
[2] = dose: 20.0 mg/kg/injection, schedule: Q01DX009 (ip), vehicle: saline
[3] = dose: 40.0 mg/kg/injection, schedule: Q01DX009 (ip), vehicle: saline
[4] = dose: 100.0 mg/kg/injection, schedule: Q01DX001 (ip), vehicle: other
[5] = dose: 200.0 mg/kg/injection, schedule: Q01DX001 (ip), vehicle: other
[6] = dose: 400.0 mg/kg/injection, schedule: Q01DX001 (ip), vehicle: other
[7] = dose: 100.0 mg/kg/injection, schedule: Q01DX001 (ip), vehicle: saline
[8] = dose: 200.0 mg/kg/injection, schedule: Q01DX001 (ip), vehicle: saline
[9] = dose: 12.5 mg/kg/injection, schedule: Q01DX009 (ip), vehicle: saline
[10] = dose: 25.0 mg/kg/injection, schedule: Q01DX009 (ip), vehicle: saline
[11] = dose: 50.0 mg/kg/injection, schedule: Q01DX009 (ip), vehicle: saline
[12] = dose: 50.0 mg/kg/injection, schedule: Q04DX003 (ip), vehicle: saline
[13] = dose: 100.0 mg/kg/injection, schedule: Q04DX003 (ip), vehicle: saline
[14] = dose: 200.0 mg/kg/injection, schedule: Q04DX003 (ip), vehicle: saline
[15] = dose: 50.0 mg/kg/injection, schedule: Q01DX001 (ip), vehicle: saline
[16] = dose: 100.0 mg/kg/injection, schedule: Q01DX009 (ip), vehicle: saline with Tween-80
[17] = dose: 200.0 mg/kg/injection, schedule: Q01DX009 (ip), vehicle: saline with Tween-80

Measured: T/C

COc1cc2cc3c4cc(OC)c(OC)cc4cc[n+]3cc2cc1OC
inactive: [1] 92 % of control | [2] 116 % of control | [3] 118 % of control | dose: 80.0 mg/kg/injection, schedule: Q01DX009 (ip), vehicle: saline 110 % of control | dose: 160.0 mg/kg/injection, schedule: Q01DX009 (ip), vehicle: saline 113 % of control | dose: 320.0 mg/kg/injection, schedule: Q01DX009 (ip), vehicle: saline 93 % of control

COC1C=CC2OC(c3ccccc3)OCC2O1 (stereo not drawn)
inactive: [4] 101 % of control | [5] 101 % of control | [6] 109 % of control

O=C(c1ccccc1)C1CNCCC1(O)c1ccccc1 (stereo not drawn)
inactive: dose: 75.0 mg/kg/injection, schedule: Q01DX001 (ip), vehicle: saline 104 % of control | dose: 75.0 mg/kg/injection, schedule: Q04DX003 (ip), vehicle: acetone 101 % of control | dose: 150.0 mg/kg/injection, schedule: Q01DX001 (ip), vehicle: saline 95 % of control | dose: 150.0 mg/kg/injection, schedule: Q04DX003 (ip), vehicle: acetone 91 % of control | dose: 300.0 mg/kg/injection, schedule: Q01DX001 (ip), vehicle: saline 116 % of control

CC1(c2ccncc2)OCCO1
inactive: [7] 97 % of control | [8] 101 % of control

COC(=O)C1C2c3ccccc3C(C1C(=O)OC)[n+]1ccccc12 (stereo not drawn)
inactive: dose: 100.0 mg/kg/injection, schedule: Q04DX003 (ip), vehicle: Klucel (hydroxypropylcellulose) (HPC) 95 % of control | dose: 200.0 mg/kg/injection, schedule: Q04DX003 (ip), vehicle: Klucel (hydroxypropylcellulose) (HPC) 98 % of control

O=Cc1cc([N+](=O)[O-])ccc1O
inactive: [4] 101 % of control | [5] 97 % of control | [6] 103 % of control

NC(CSC(c1ccccc1)(c1ccccc1)c1ccc(-c2ccccc2)cc1)C(=O)O (stereo not drawn)
inactive: [9] 103 % of control | [10] 104 % of control | [11] 107 % of control

CCOC1CC2c3ccccc3C1c1cccc[n+]12 (stereo not drawn)
inactive: [9] 100 % of control | dose: 12.5 mg/kg/injection, schedule: Q04DX003 (ip), vehicle: saline 100 % of control and 94 % of control | [10] 98 % of control | dose: 25.0 mg/kg/injection, schedule: Q04DX003 (ip), vehicle: saline 89 % of control and 101 % of control | [11] 94 % of control and 96 % of control | [12] 97 % of control and 101 % of control | dose: 75.0 mg/kg/injection, schedule: Q01DX009 (ip), vehicle: saline 88 % of control | [13] 98 % of control | [14] 107 % of control | dose: 400.0 mg/kg/injection, schedule: Q04DX003 (ip), vehicle: saline 86 % of control

CCCCCCOCCN1CCN(CCCN2c3ccccc3Sc3ccc(C(F)(F)F)cc32)CC1
inactive: dose: 12.5 mg/kg/injection, schedule: Q04DX003 (ip), vehicle: saline with Tween-80 106 % of control | dose: 25.0 mg/kg/injection, schedule: Q04DX003 (ip), vehicle: saline with Tween-80 101 % of control | dose: 50.0 mg/kg/injection, schedule: Q04DX003 (ip), vehicle: saline with Tween-80 101 % of control | dose: 100.0 mg/kg/injection, schedule: Q04DX003 (ip), vehicle: saline with Tween-80 93 % of control

Cc1ncc(CN2CSC(CCO)C2C)c(N)n1 (stereo not drawn)
inactive: dose: 100.0 mg/kg/injection, schedule: Q01DX001 (ip), vehicle: Klucel (hydroxypropylcellulose) (HPC) 95 % of control | dose: 200.0 mg/kg/injection, schedule: Q01DX001 (ip), vehicle: Klucel (hydroxypropylcellulose) (HPC) 93 % of control | dose: 400.0 mg/kg/injection, schedule: Q01DX001 (ip), vehicle: Klucel (hydroxypropylcellulose) (HPC) 93 % of control

OCCOCCN1CCN(CC/C=C2\c3ccccc3Sc3ccc(C(F)(F)F)cc32)CC1
inactive: dose: 1.56 mg/kg/injection, schedule: Q01DX009 (ip), vehicle: saline 104 % of control | dose: 1.56 mg/kg/injection, schedule: Q04DX003 (ip), vehicle: saline 100 % of control | dose: 2.5 mg/kg/injection, schedule: Q01DX009 (ip), vehicle: saline 98 % of control | dose: 3.12 mg/kg/injection, schedule: Q01DX009 (ip), vehicle: saline 111 % of control | dose: 3.12 mg/kg/injection, schedule: Q04DX003 (ip), vehicle: saline 94 % of control | dose: 5.0 mg/kg/injection, schedule: Q01DX009 (ip), vehicle: saline 108 % of control | dose: 6.25 mg/kg/injection, schedule: Q01DX009 (ip), vehicle: saline 106 % of control | dose: 6.25 mg/kg/injection, schedule: Q04DX003 (ip), vehicle: saline 101 % of control | dose: 6.9 mg/kg/injection, schedule: Q01DX015 (ip), vehicle: saline 115 % of control | dose: 8.0 mg/kg/injection, schedule: Q04DX003 (ip), vehicle: saline with Tween-80 116 % of control | dose: 9.2 mg/kg/injection, schedule: Q01DX009 (ip), vehicle: saline 103 % of control | [1] 117 % of control | dose: 10.3 mg/kg/injection, schedule: Q01DX015 (ip), vehicle: saline 105 % of control | dose: 14.0 mg/kg/injection, schedule: Q01DX009 (ip), vehicle: saline 117 % of control | [2] 117 % of control | dose: 21.0 mg/kg/injection, schedule: Q01DX009 (ip), vehicle: saline 88 % of control | dose: 25.0 mg/kg/injection, schedule: Q01DX001 (ip), vehicle: saline 116 % of control | [3] 96 % of control | [15] 105 % of control and 114 % of control | [7] 108 % of control | [13] 123 % of control

C=CCc1cc(C)cc([N+](=O)[O-])c1OBr
inactive: dose: 100.0 mg/kg/injection, schedule: Q01DX001 (ip), vehicle: saline with Tween-80 89 % of control | [16] 97 % of control | dose: 200.0 mg/kg/injection, schedule: Q01DX001 (ip), vehicle: saline with Tween-80 88 % of control | [17] 98 % of control | dose: 400.0 mg/kg/injection, schedule: Q01DX001 (ip), vehicle: saline with Tween-80 93 % of control | dose: 400.0 mg/kg/injection, schedule: Q01DX009 (ip), vehicle: saline with Tween-80 93 % of control

N#C/C([SH2+])=C(/[SH2+])C#N.N#C/C([SH2+])=C(/[SH2+])C#N.N#C/C([SH2+])=C(/[SH2+])C#N.N#C/C([SH2+])=C(/[SH2+])C#N.[Co+3].[Co+3].c1ccc([P+](c2ccccc2)(c2ccccc2)c2ccccc2)cc1
inactive: [12] 105 % of control | [7] 105 % of control | [13] 97 % of control | [8] 109 % of control | [14] 108 % of control

Cc1cccc(C(C)(C)CO)c1
inactive: dose: 50.0 mg/kg/injection, schedule: Q01DX009 (ip), vehicle: saline with Tween-80 100 % of control | [16] 96 % of control | [17] 96 % of control

Nc1nc(N)c(NC/C=C\c2ccc([N+](=O)[O-])cc2)c(-c2ccccc2)n1
inactive: [15] 91 % of control | [7] 97 % of control | [8] 103 % of control | dose: 400.0 mg/kg/injection, schedule: Q01DX001 (ip), vehicle: saline 109 % of control

S=c1n(CN2CCCCC2)c2cncnc2n1CN1CCCCC1
inactive: dose: 75.0 mg/kg/injection, schedule: Q01DX Z (ip), vehicle: carboxymethylcellulose (CMC) 98 % of control | dose: 100.0 mg/kg/injection, schedule: Q01DX Z (ip), vehicle: carboxymethylcellulose (CMC) 109 % of control | dose: 125.0 mg/kg/injection, schedule: Q01DX Z (ip), vehicle: carboxymethylcellulose (CMC) 95 % of control
